Inconclusive results are not listed.
Target: Virion infectivity factor (Human immunodeficiency virus type 1 group M subtype B (isolate BH10)) + Virion infectivity factor (Human immunodeficiency virus type 1 group M subtype B (isolate BRU/LAI)) + Virion infectivity factor (Human immunodeficiency virus type 1 group M subtype B (isolate PCV12)) + Virion infectivity factor (Human immunodeficiency virus type 1 group M subtype B (isolate HXB2)) + DNA dC->dU-editing enzyme APOBEC-3G (Homo sapiens) (UniProt P69720+P69721+P69722+P69723+Q9HC16)
Assay: inhibitors of Vif binding to APOBEC3G peptide, primary screen, biochemical, TR-FRET, GST-Vif 1-94, biotin-A3G peptide, dose response retest (AID 1117319);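 further: Vif residues 1-94 fused to GST binding biotinylated APOBEC3G peptide 110-148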

| Compound | IC50 |
| --- | --- |
| COc1ccc(NC(=S)NCCc2ccccc2OC)c(OC)c1 | 7.02 µM |
| Cc1cc2c(=Cc3ccc(N(C)C)cc3)c3ccccc3n2[n+]1C | 16.9 µM |
| CN1CCc2c(sc3c2c(NCc2ccco2)nc2nnnn23)C1 | 16.2 µM |
| CN1CCN(S(=O)(=O)c2ccc(NC(=S)NC(=O)c3ccc(Cl)cc3)cc2)CC1 | 80.7 µM |
| CCCCN1C2CCCC1CC(NC(=O)c1ccc(OC)c(OC)c1)C2 (configuration not stated) | 19.1 µM |
| O=C1CC(c2ccco2)CC(O)=C1C=Nc1cc(Cl)ccc1O (configuration not stated) | 4.47 µM |
| Cc1cc(C)c(S(=O)(=O)NCC2CCC(C(=O)N3CCC4(CC3)OCCO4)CC2)c(C)c1 (configuration not stated) | 39.6 µM |
| Cc1cc(C(=O)Nc2sc3c(c2C#N)CCCCC3)cs1 | 95.9 µM |
| N#C/C(=C/c1ccc(N2CCCCCC2)o1)c1cccc(F)c1 | 24.6 µM |
| Cc1ccc2[nH]c(=O)c(C3C(C#N)=C(N)Oc4c3ccc3cccnc43)cc2c1 (configuration not stated) | 24.3 µM |
| O=c1cc(-c2ccccc2Cl)c2c([nH]1)CCC2 | 4.31 µM |
| CCC(c1ccc(O)c(O)c1)C(CC)c1ccc(O)c(O)c1 (configuration not stated) | 6.46 µM |
| O=C(O)C1Nc2c(Cl)cc(Cl)c(Cl)c2C2C=CCC12 (configuration not stated) | 30 µM |
| Cc1noc(C)c1COc1ccc(C(=O)OCC(=O)N2c3ccccc3NC(=O)C2(C)C)cc1 | 14.9 µM |
| N#Cc1ccc(CSc2nnc(Cc3cccs3)n2Cc2ccco2)cc1 | 46.5 µM |
| CC1(C)Cc2nc3sc4c(SCC(=O)NCc5ccco5)ncnc4c3cc2CO1 | 79.5 µM |
| CCCOc1ccc(Cc2nn3c(=O)/c(=C/c4ccco4)sc3nc2=O)cc1 | 1.5 µM |
| CCOC(=O)C1CCCN(C(=O)c2ccc(CNc3c(N4CCC(C)CC4)c(=O)c3=O)cc2)C1 (configuration not stated) | 31.4 µM |
| Cc1ccc(/C=C/C(=O)Nc2ncc(C)s2)o1 | 7.07 µM |
| CCOC(=O)c1cnn2c(N)c(C#N)nnc12 | 21.4 µM |
| COc1ccc(/C=C(\NC(=O)c2ccc(OCC(C)C)cc2)C(=O)OCc2ccco2)cc1 | 32.7 µM |
| CCOC(=O)C1=C(c2ccccc2)N=c2s/c(=C\c3ccco3)c(=O)n2C1c1cccs1 (configuration not stated) | 3.76 µM |
| O=C1NC(=S)NC1=Cc1ccco1 | 11.3 µM |

| Compound | IC50 |
| --- | --- |
| NC(=O)C1CCN(C2=C(Cl)C(=O)c3ccccc3C2=O)CC1 | 2.5 µM |
| O=C(CSc1nnc(-c2ccco2)c(-c2ccco2)n1)Nc1ccccc1 | 3.12 µM |
| COc1ccc(OC)c(NC(=O)CCN2CCC(C)CC2)c1 | 25.4 µM |
| CCOC(=O)c1ccc(NS(=O)(=O)c2ccc3oc(=O)[nH]c3c2)cc1 | 88.2 µM |
| CCN(CC)c1ccc(C2NC(=O)NC(C)=C2C(=O)Nc2ccccc2)cc1 (configuration not stated) | 84.4 µM |
| COc1ccc(S(=O)(=O)Nc2cc(SCC(=O)O)c(O)c3ccccc23)cc1 | 22.1 µM |
| CN1CCN(C2=C(Cl)C(=O)c3ccccc3C2=O)CC1 | 4.42 µM |
| CN(CCC#N)C(=O)COC(=O)c1c2c(nc3ccccc13)/C(=C\c1ccco1)CC2 | 1.66 µM |
| CC1=Nc2cccc3cccc(c23)N1 | 0.53 µM |
| CCN(CC)S(=O)(=O)c1cccc(C(=O)N/N=C/c2ccc(O)c(O)c2O)c1 | 3.48 µM |
| O=C1C=C(Nc2cccc3cccnc23)c2ccccc2C1=O | 22.8 µM |
| COC(=O)Cn1c(CCC(=O)O)ccc1-c1ccccc1 | 12.5 µM |
| COc1cc(C2Nc3ccccc3C(=O)N2c2ccccc2)ccc1O (configuration not stated) | 39.4 µM |
| O=C(OCC(=O)N1CCN(C(=O)c2ccco2)CC1)c1cc(-c2ccco2)nc2ccccc12 | 3.95 µM |
| COCCN=c1scc(-c2cccs2)n1/N=C/c1ccc(O)c(O)c1O | 2.37 µM |
| Cc1nc2ccc(NC(=O)Cc3cccs3)cc2s1 | 84 µM |
| O=C(Nc1nc(-c2ccco2)c(-c2ccco2)s1)c1ccc(F)cc1F | 85.4 µM |
| CCN(CC)CCN1C(=O)c2ccccc2NC1c1ccc(N(C)C)cc1 (configuration not stated) | 90.1 µM |
| COc1cc(NCCCNC(C)C)c2nccc(C)c2c1 | 52.8 µM |
| COc1cc(/C=C2/C(=O)c3cccc([N+](=O)[O-])c3C2=O)c(Br)cc1O | 32.2 µM |
| COC(=O)C1=C(C)NC(=O)/C1=C\c1ccco1 | 6.12 µM |
| O=[N+]([O-])c1cc(CN2CCOCC2)c2cccnc2c1O | 4.07 µM |
| Cc1cc(C(=O)COC(=O)c2cc(O)c3ccccc3c2O)c(C)n1CC1CCCO1 (configuration not stated) | 6.92 µM |

| Compound | IC50 |
| --- | --- |
| O=C(O)CCc1ccc(S(=O)(=O)Nc2cc(C(F)(F)F)ccc2N2CCCC2)cc1 | 14.4 µM |
| COCCNC(=O)Nc1ccc2nc(-c3ccco3)c(-c3ccco3)nc2c1 | 0.25 µM |
| CC(=C\c1ccco1)/C=C1/SC(=S)N(CC(=O)O)C1=O | 14.7 µM |
| O=C1NC(=O)C(=Cc2ccco2)C(=O)N1 | 19.9 µM |
| O=[N+]([O-])c1cc(CN2CCCC2)c2cccnc2c1O | 2.48 µM |
| COc1ccc2c3c(cccc13)N(C)N=C2C | 4.23 µM |
| O=C1N=C(N2CCOCC2)SC1=Cc1ccco1 | 92.5 µM |
| O=C(O)c1ccc2c(c1)[C@@H]1C=CC[C@@H]1[C@H](c1ccccn1)N2 | 1.05 µM |
| COc1cccc(-c2nn3c(-c4ccccn4)nnc3s2)c1 | 81.3 µM |
| N#C/C(=C/c1ccc(Br)o1)C(N)=S | 3.87 µM |
| CN(C1=C(NC(=O)c2ccc(Cl)cc2)C(=O)c2ccccc2C1=O)c1ccccc1 | 52.4 µM |
| O=C1NC(=S)N/C1=C/c1ccc(-c2c(Br)cc([N+](=O)[O-])cc2Br)o1 | 39 µM |
| Cc1cc(C)cc(Nc2ncc3c(n2)CC(c2ccco2)CC3=O)c1 (configuration not stated) | 6.84 µM |
| Oc1ccc(C2Nc3cccc4cccc(c34)N2)c(O)c1 | 17.5 µM |
| O=C1/C(=C\c2ccco2)SC(=S)N1Cc1ccccc1 | 3.56 µM |
| O=C(CCCN1C(=O)/C(=C\c2ccco2)SC1=S)Nc1ccc2ccccc2c1 | 7.25 µM |
| O=[N+]([O-])c1c(NCCCO)cc(SCc2ccco2)c2nonc12 | 4.65 µM |
| Cc1ccc(C)c2[nH]c(=O)c(CN(Cc3ccc4c(c3)OCO4)Cc3nnnn3Cc3ccco3)cc12 | 12.4 µM |
| Cc1cc(/C=C2\SC(=S)NC2=O)c(C)n1C | 36.2 µM |
| C=CCn1c(SCC(=O)c2cc(C)n(C(C)COC)c2C)nc2sc(C)c(C)c2c1=O (configuration not stated) | 27.1 µM |
| CC(C)(C)NC(=O)C(c1ccncc1)N(C(=O)CNC(=O)c1ccco1)c1ccc2c(c1)OCO2 (configuration not stated) | 11.3 µM |
| FC(F)(F)c1cc(-c2ccco2)nc(NCc2ccco2)n1 | 4.24 µM |
| O=C(CN1CCN(c2ccccc2O)CC1)Nc1ccc2c(c1)CCC2 | 50.8 µM |

| Compound | IC50 |
| --- | --- |
| COc1ccc(S(=O)(=O)N(C(C)=O)c2ccc3oc(=O)sc3c2)cc1 | 88.4 µM |
| O=C(COC(=O)Cc1ccc(Cl)cc1)NCc1ccco1 | 7.37 µM |
| C[C@H]1c2cccc(O)c2C(O)=C2C(=O)[C@]3(O)C(O)=C(C(N)=O)C(=O)[C@@H](N(C)C)[C@@H]3[C@@H](O)[C@@H]21 | 13.6 µM |
| CC(C)NC[C@@H](O)c1ccc(O)c(O)c1 | 4.93 µM |
| COc1cc(-c2nnc(SCc3cc(=O)oc4cc(O)c(O)cc34)o2)cc(OC)c1OC | 8.36 µM |
| CC(=O)Nc1ccc(S(=O)(=O)Nc2nc3ccccc3nc2Nc2ccc(N)cc2)cc1 | 0.62 µM |
| COC1=C(N)C(=O)c2nc(C)ccc2C1=O | 18.3 µM |
| O=C(/C=C/c1cccs1)Nc1ccc(Br)cn1 | 10.2 µM |
| NS(=O)(=O)c1ccc(CCNC(=O)CCS(=O)(=O)c2ccc(Br)cc2)cc1 | 25 µM |
| CCN1CCC(=NNC(=O)CC23CC4CC(CC(C4)C2)C3)CC1 | 97.5 µM |
| CC1=CC(C)(C)Nc2ccc(OC(=O)CN3C(=O)c4cccc5cccc(c45)C3=O)cc21 | 1.99 µM |
| COC(=O)\C(C(C)=O)=C(/C=C/C=C/C=C/N(C)C)N(C)C | 2.76 µM |
| COC/C=C/C1=CC2=CC(=O)C(C)(OC(=O)CCC(=O)OC)C(=O)C2=CO1 (configuration not stated) | 1.35 µM |
| CCc1cc(=O)n2[nH]c(C)c(-c3ccccc3OC)c2n1 | 4.38 µM |
| C=CCn1c(C)c(C(C)=O)c(N2CCN(c3ccccc3)CC2)nc1=S | 8.23 µM |
| O=C1CCC/C1=C/Nc1ccc2c(c1)OCO2 | 2.09 µM |
| CCCCn1c(O)c(C(CC)=NCCN2CCCCC2)c(=O)[nH]c1=O | 4.09 µM |
| COc1ccc(OC)c(C2C(C(=O)Nc3ccc(F)cc3)=C(C)Nc3nc(CCCO)nn32)c1 (configuration not stated) | 54.6 µM |
| CCN(CC)Cc1cc(O)c(CN(CC)CC)cc1O | 10.8 µM |
| CCCCN1C(=O)/C(=C/C=C/c2ccco2)C(=O)NC1=S | 4.61 µM |
| CCn1c(SCC(=O)NCc2ccco2)nnc1-c1cccs1 | 95.8 µM |
| Cc1cc(C)n(CC(=O)NNC(=O)c2ccc(NC(=O)CC#N)cc2)n1 | 91.3 µM |
| Clc1ccc(/C=N/c2c(-c3ccco3)nc3ccccn23)cc1 | 14.1 µM |

| Compound | IC50 |
| --- | --- |
| CCOc1cccc(OCC)c2c(C)[n+](CC3CCCO3)c(C)c1-2 (configuration not stated) | 0.85 µM |
| CCOc1cccc(CNc2ccc(O)cc2)c1OCc1ccccc1Cl | 6.61 µM |
| Oc1ccc(/C=N/N2CCOCC2)c(O)c1O | 12.5 µM |
| O=C1CC(Nc2ccc(N3CCOCC3)cc2)C(=O)N1c1ccccc1F (configuration not stated) | 1.65 µM |
| COc1ccc(N2CCN(C(=O)c3ccc(C)c(Cl)c3)CC2)cc1 | 42.2 µM |
| FC(F)(F)C1=Nc2cccc3cccc(c23)N1 | 5.95 µM |
| O=[N+]([O-])c1ccc(-c2ccc(/C=N/c3c(-c4ccco4)nc4ccccn34)o2)cc1 | 0.26 µM |
| COc1ccc(OCCOC(=O)c2cccc(-n3cnnn3)c2)cc1 | 93.6 µM |
| O=C(NCC1CCCO1)c1cc(-c2ccco2)nc2ccccc12 (configuration not stated) | 14.4 µM |
| CC1CCCCC1NC(=O)COC(=O)c1c2c(nc3ccccc13)/C(=C/c1ccco1)CC2 (configuration not stated) | 1.33 µM |
| O=C(O)CCCCC1SCC2NC(=O)NC21 (configuration not stated) | 0.27 µM |
| CCOc1cccc(=O)c2c(C)n(CC(=O)c3ccccc3)c(C)c12 | 8.28 µM |
| CCOC(=O)COc1nc(-c2ccco2)cc(-c2ccco2)c1C#N | 5.83 µM |
| Cc1cccc(N2C(=O)/C(=C/c3ccc(CN(CCC#N)S(C)(=O)=O)o3)C(=O)NC2=S)c1 | 22.9 µM |
| FC(F)(F)c1cc(-c2ccco2)nc(NCc2cccnc2)n1 | 42.3 µM |
| O=C1C=Cc2ccccc2C1=O | 10.6 µM |
| Cc1ccc(SCCN2C(=O)NC(C)(C)C2=O)cc1 | 7.32 µM |
| COc1ccccc1N1C(=O)NC(=O)/C(=C/c2ccc([N+](=O)[O-])s2)C1=O | 6.9 µM |
| Cc1ccc(/C=C/C(=O)Nc2ccc([N+](=O)[O-])c(NC(=O)/C=C/c3ccc(C)o3)c2)o1 | 1.49 µM |
| Cc1cccc(NC(=O)CSc2nnc(-c3ccco3)c(-c3ccco3)n2)c1C | 4.3 µM |

— PubChem BioAssay AID1117319 (Southern Research Institute, 2015)
